The text below walks through data of paper PMC13575467, “Structural and functional characterisation of a reconstructed ancestral strigolactone receptor” (The Plant Journal, 2026).

Test [1] concerns the target T1, AtD14 (Arabidopsis thaliana, UniProt Q9SQR3).
T1 construct: gene D14; E. coli codon-optimised, 6xHis-SUMO fusion (pE-SUMO-Amp) from E. coli Rosetta, Ni-NTA, tag kept in assays
T1 sequence (Q9SQR3 1-267): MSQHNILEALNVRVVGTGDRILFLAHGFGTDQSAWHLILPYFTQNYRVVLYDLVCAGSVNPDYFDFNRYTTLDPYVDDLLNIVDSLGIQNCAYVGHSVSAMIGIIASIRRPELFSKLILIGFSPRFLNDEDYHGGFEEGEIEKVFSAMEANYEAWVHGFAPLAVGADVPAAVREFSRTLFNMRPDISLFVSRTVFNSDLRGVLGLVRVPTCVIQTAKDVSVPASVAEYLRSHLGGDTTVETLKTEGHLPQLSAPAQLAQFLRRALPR
As to the kind of experiment: differential scanning fluorimetry. The format is binding. As to conditions: Tm lowered (destabilisation); ligand 0-200 μM.

The target in test [2] is T1, AtD14. Briefly: competition of dYLG hydrolysis. The test is classed as biochemical. The note with it: 5 μM dYLG, 0-50 μM competitor, 100 ng protein.
The target of test [3] is T2, ancD14 (ancestral D14) (synthetic construct, UniProt Z9A6V6BWX9).
T2 sequence (Z9A6V6BWX9 1-265): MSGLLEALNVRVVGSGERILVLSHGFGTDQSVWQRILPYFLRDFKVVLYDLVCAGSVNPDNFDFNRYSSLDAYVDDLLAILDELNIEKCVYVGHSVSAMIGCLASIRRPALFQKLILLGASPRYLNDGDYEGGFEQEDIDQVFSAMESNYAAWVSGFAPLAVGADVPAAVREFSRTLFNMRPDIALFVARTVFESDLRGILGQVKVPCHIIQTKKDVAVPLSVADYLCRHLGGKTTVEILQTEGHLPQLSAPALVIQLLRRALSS
Briefly: differential scanning fluorimetry. The test is classed as binding. The note with it: Tm lowered (destabilisation); ligand 0-200 μM. For orientation: DSF heats the sample and reads unfolding from a dye or from intrinsic fluorescence.

In test [4] the target is T2, ancD14 (ancestral D14). As to the kind of experiment: competition of dYLG hydrolysis. The format is biochemical. The note with it: 5 μM dYLG, 0-50 μM competitor, 100 ng protein.
In test [5] the target is T1, AtD14. As to the kind of experiment: differential scanning fluorimetry. As to conditions: Tm lowered (destabilisation); ligand 0-200 μM. The format is binding. This is another data set of the same source.
Test [6] deals with T2, ancD14 (ancestral D14). As to the kind of experiment: differential scanning fluorimetry. The test is classed as binding. The note with it: Tm lowered (destabilisation); ligand 0-200 μM. The source holds these as a separate data set.

Take `CC1=C[C@H](O/C=C2/C(=O)O[C@@H]3c4ccccc4C[C@H]23)OC1=O` [GR24^5DS]: the results for the “dTm (decrease in melting temperature)” value at AtD14 [1] and at ancD14 (ancestral D14) [3] were 6.1 °C and 6.6 °C, respectively. Moreover, the IC50 result at AtD14 [2] was “GR24^5DS was a very effective competitor for AtD14”.
Turning to `CC1=C[C@@H](O/C=C2/C(=O)O[C@H]3c4ccccc4C[C@@H]23)OC1=O` [GR24^ent-5DS], the IC50 entry at ancD14 (ancestral D14) [4] is recorded as “GR24^ ent‐5DS also competed well with ancD14”; on AtD14 [2], “AtD14 activity was inhibited by all four enantiomers”. Further, the dTm result at AtD14 [5] was “AtD14 was thermally destabilised by both GR24^5DS and GR24^ ent‐5DS”; at ancD14 (ancestral D14) [6], “albeit with a comparatively muted response to GR24^ ent‐5DS”.
Consider `O=C1C=C[C@@H](O/C=C2/C(=O)O[C@H]3c4ccccc4C[C@@H]23)O1` [dGR24^ent-5DS], for which the IC50 entry on AtD14 [2] was “AtD14 activity was inhibited by all four enantiomers”.
